# Measurements reported in ChEMBL document CHEMBL1129116, “Synthesis of cephems bearing olefinic sulfoxide side chains as potential -lactamase inhibitors” (1996).
# Key:
# Type in all cases: functional
# Escherichia coli = experiment: Antibacterial activity of compound was measured against Escherichia coli A15119 organism
# Klebsiella pneumoniae = experiment: Antibacterial activity of compound was measured against Klebsiella pneumoniae A9432 organism
# Staphylococcus aureus [1] = experiment: Antibacterial activity of compound was measured against Staphylococcus aureus A9537 organism
# Staphylococcus aureus [2] = experiment: Antibacterial activity of compound was measured against Staphylococcus aureus (MR) CEF1198 organism
# Staphylococcus aureus [3] = experiment: Antibacterial activity of compound was measured against Staphylococcus aureus (MR) A20699 organism
SMILES,MIC (Escherichia coli) [µg/mL],MIC (Klebsiella pneumoniae) [µg/mL],MIC (Staphylococcus aureus [1]) [µg/mL],MIC (Staphylococcus aureus [2]) [µg/mL],MIC (Staphylococcus aureus [3]) [µg/mL]
COc1cccc(OC)c1C(=O)N[C@@H]1C(=O)N2[C@@H]1SC(C)(C)[C@@H]2C(=O)O [METHICILLIN],> 128,> 128,0.5,32,32
CS(=O)(=O)/C=C/C1=C(C(=O)O)N2C(=O)[C@@H](NC(=O)Cc3cccs3)[C@H]2SC1,0.5,0.5,0.06,0.5,4

# More lines, now with the values ahead:
MIC (Escherichia coli) [µg/mL],MIC (Klebsiella pneumoniae) [µg/mL],MIC (Staphylococcus aureus [1]) [µg/mL],MIC (Staphylococcus aureus [2]) [µg/mL],MIC (Staphylococcus aureus [3]) [µg/mL],SMILES
4,2,0.25,8,16,Cc1ccc([S+]([O-])/C=C/C2=C(C(=O)O)N3C(=O)[C@@H](NC(=O)Cc4cccs4)[C@H]3SC2)cc1 (some centres undefined)
1,0.5,0.03,4,16,C[S+]([O-])/C=C/C1=C(C(=O)O)N2C(=O)[C@@H](NC(=O)Cc3cccs3)[C@H]2SC1 (some centres undefined)
64,64,0.5,–,64,O=C(Cc1cccs1)N[C@@H]1C(=O)N2C(C(=O)O)=C(/C=C/[S+]([O-])c3ccc([N+](=O)[O-])cc3)CS[C@H]12 (some centres undefined)
